Legend:
[1] = Enzymatic hydrolysis by dog blood (procedure C); format: in vitro ADME; conditions: 37° C.; for remaining at 1 h: read-out: % Drug remaining, 1 HR, dog blood; for remaining at 2 h: read-out: % Drug remaining, 2 HR, dog blood
Description: Chemicals--Acetonitrile was "HPLC" grade. Distilled water was used to dissolve the compounds and 0.01 N HCl was used to dissolve compounds requiring an acidic pH for dissolution.
Enzyme Source--Fresh aqueous humor was collected from eyes of dogs using a 23-gauge needle while fresh dog blood was collected into heparinized Vacutainer tubes. Fresh liver was homogenized in 0.9% NaCl using a Potter-Elvehjem Teflon pestle and glass homogenizer to make a 25% (W/V) homogenate.
Incubation Condition--A 0.5 ml aliquot of dog aqueous humor, blood, or liver homogenate was incubated with 12.5 μg (0.5 ml) of β-blocker in a Dubnoff shaking metabolic incubator at 37° C. for 60 and 120 min. Denatured tissue controls were prepared by adding 2.0 ml of acetonitrile into 0.5 ml of aqueous humor, blood, or liver homogenate to destroy esterase activities prior to addition of the β-blockers. These controls were then incubated at 37° C. for 120 min. After 60 and 120 min, the incubations were terminated by addition of 2 ml of acetonitrile and immediately mixed by a Vortex.cndot. to stop esterase activities.
Sample Processing and Data Analyses--All samples were centrifuged at 4000 RPM for 10 min to sediment denatured proteins. The resultant supernatants were transferred to WISP.cndot. vials and analyzed using an HPLC assay developed for beta blockers. The hydrolysis of β-blockers by aqueous humor, blood, and liver homogenate was determined by disappearance of the compounds. The extent of enzymatic hydrolysis by each tissue was determined by comparing the amount of each compound (absolute peak area) recovered at each time point to the amount of each compound (absolute peak area) in denatured tissue control and aqueous control samples.

[2] = Enzymatic hydrolysis by dog aqueous humor (procedure C); format: in vitro ADME; conditions: for remaining at 1 h / remaining at 2 h: 37° C., procedure C; for remaining at 1 h: read-out: % Drug remaining, 1 HR, dog aqueous humor; for remaining at 2 h: read-out: % Drug remaining, 2 HR, dog aqueous humor; for half-life: approximate value, determined by procedure C, read-out: T1/2 dog aqueous humor; for metabolised at 2 h: two hours, read-out: hydrolyzed in aqueous humor after two hours
Source text: Chemicals--Acetonitrile was "HPLC" grade. Distilled water was used to dissolve the compounds and 0.01 N HCl was used to dissolve compounds requiring an acidic pH for dissolution. Enzyme Source--Fresh aqueous humor was collected from eyes of dogs using a 23-gauge needle while fresh dog blood was collected into heparinized Vacutainer tubes. Fresh liver was homogenized in 0.9% NaCl using a Potter-Elvehjem Teflon pestle and glass homogenizer to make a 25% (W/V) homogenate. […] Denatured tissue controls were prepared by adding 2.0 ml of acetonitrile into 0.5 ml of aqueous humor, blood, or liver homogenate to destroy esterase activities prior to addition of the β-blockers. These controls were then incubated at 37° C. for 120 min. […] Sample Processing and Data Analyses--All samples were centrifuged at 4000 RPM for 10 min to sediment denatured proteins. The resultant supernatants were transferred to WISP.cndot. vials and analyzed using an HPLC assay developed for beta blockers. The hydrolysis of β-blockers by aqueous humor, blood, and liver homogenate was determined by disappearance of the compounds. The extent of enzymatic hydrolysis by each tissue was determined by comparing the amount of each compound (absolute peak area) recovered at each time point to the amount of each compound (absolute peak area) in denatured tissue control and aqueous control samples.

[3] = biological target: β2 receptors, guinea pig trachea (Cavia porcellus, UniProt Q8K4Z4); experiment: cell-based; conditions: Table I; guinea pig trachea, vs isoproterenol; -log KB; read-out: PA2 Trachea (converted)
Sequence of β2 receptors, guinea pig trachea (Q8K4Z4 whole entry): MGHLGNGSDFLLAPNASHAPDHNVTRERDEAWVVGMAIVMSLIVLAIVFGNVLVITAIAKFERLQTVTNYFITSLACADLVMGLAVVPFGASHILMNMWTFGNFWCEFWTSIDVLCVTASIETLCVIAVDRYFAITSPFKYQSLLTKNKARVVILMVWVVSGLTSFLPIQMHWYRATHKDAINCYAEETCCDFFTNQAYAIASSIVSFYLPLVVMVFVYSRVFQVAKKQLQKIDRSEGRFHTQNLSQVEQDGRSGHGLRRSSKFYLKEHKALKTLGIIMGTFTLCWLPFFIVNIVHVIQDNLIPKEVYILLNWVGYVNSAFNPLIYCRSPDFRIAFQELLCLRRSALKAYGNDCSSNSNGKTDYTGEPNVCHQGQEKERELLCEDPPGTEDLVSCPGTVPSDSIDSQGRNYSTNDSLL
Description: Each tissue was suspended between a fixed glass rod and a Statham Universal Transducer connected to a Beckman recorder. Atria were allowed to beat spontaneously under a loading tension of approximately 0.5 gm. Intrinsic depressant or stimulant activity was determined for each compound by progressively increasing concentrations in the tissue baths at 60-minute intervals. Tissues were not washed between increments. […] Changes in rate in response to isoproterenol, a standard β-receptor agonist, were measured in the absence and presence of test compounds. Spiral strips of guinea pig trachea were suspended under 5 gm resting tension and incubated with phentolamine, tropolone and cocaine. Active tension was generated by addition of carbachol (3.0×10^-7 M) and decreases in tension in response to isoproterenol were quantitated. Cumulative concentration-response curves were produced with isoproterenol both before and after 60-minute incubation of test compounds with atria and trachea. […] The blocking potency of test compounds was estimated by computing pA2 values (-log KB) by the method of Furchgott, the Pharmacological Differentiation of Adrenergic Receptors, Ann. […] A ratio greater than one indicates cardioselectivity. Test drugs were dissolved in distilled water and added to the bath (30 ml) in a volume of 10 or 100 μl.

With `COC(=O)c1ccccc1OCC(O)CNCCNC(=O)Cc1ccccc1` (stereo not drawn) [III, Methyl 2-[2-Hydroxy-3-[N-[2-(phenylacetamido)ethyl]amino]propoxy]benzoate] the remaining at 1 h [1] was 53%, the remaining at 2 h [1] was 23% and the remaining at 1 h [2] was 100%. For the same compound, the remaining at 2 h [2] was 98%, the half-life [2] was > 2 h and the metabolised at 1 h ([2]; one hour, read-out: hydrolyzed in aqueous humor after one hour) was 0%. The metabolised at 2 h [2] was 2% and the Kb [3] was 20 nM.
`COC(=O)c1ccccc1OCC(O)CNCCNC(C)=O` (stereo not drawn) [Example I, Methyl 2-[2-Hydroxy-3-[N-2(-acetamidoethyl)amino]propoxy]benzoate] gave a remaining at 1 h [1] of 54%, a remaining at 2 h [1] of 47% and a remaining at 1 h [2] of 93%. The remaining at 2 h [2] was 93%, the half-life [2] was > 2 h and the metabolised at 2 h [2] was 7%. The Kb [3] was 100 nM.
In the case of `COC(=O)c1ccccc1OCC(O)CNCCNC(=O)C(C)C` (stereo not drawn) [II, Methyl 2-[2-Hydroxy-3-[N-[2-(2-methylpropionamido)ethyl]amino]propoxy]benzoate], the remaining at 1 h [1] is reported as 41%, the remaining at 2 h [1] is reported as 16% and the remaining at 1 h [2] is reported as 94%. The remaining at 2 h [2] was 91%, the half-life [2] was > 2 h and the Kb [3] was 31.6 nM.

— US4906661A, “Esters of aryloxypropanolamine derivatives” (E. I. Du Pont de Nemours and Company, priority 1989, dated 1990)
